Tested on: 377384-186-R-J1-PDC complex spheroid viability
Assay: Anticancer human tumor 377384-186-R-J1-PDC patient-derived pancreatic carcinoma cell line growth inhibition [CLK]
Conditions: for IC50: curve of first compound; for viability, T/C: stronger effect = lower value
In short: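 Patient-derived tumor cells grown as complex spheroids with HUVEC endothelial cells and mesenchymal stem cells, treated with drug combinations. Concentrations descend in half-log steps from near clinical Cmax, or from 10 microM if Cmax unknown.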

[1] = second compound 0.0316 µM, first compound 0.0316 µM
[2] = second compound 0.0316 µM, first compound 0.1 µM
[3] = second compound 0.0316 µM, first compound 0.316 µM
[4] = second compound 0.0316 µM, first compound 1 µM
[5] = second compound 0.1 µM, first compound 0.0316 µM
[6] = second compound 0.1 µM, first compound 0.1 µM
[7] = second compound 0.1 µM, first compound 0.316 µM
[8] = second compound 0.1 µM, first compound 1 µM
[9] = second compound 0.316 µM, first compound 0.0316 µM
[10] = second compound 0.316 µM, first compound 0.1 µM
[11] = second compound 0.316 µM, first compound 0.316 µM
[12] = second compound 0.316 µM, first compound 1 µM
[13] = second compound 1 µM, first compound 0.0316 µM
[14] = second compound 1 µM, first compound 0.1 µM
[15] = second compound 1 µM, first compound 0.316 µM
[16] = second compound 1 µM, first compound 1 µM
[17] = second compound 3.16 µM, first compound 0.0316 µM
[18] = second compound 3.16 µM, first compound 0.1 µM
[19] = second compound 3.16 µM, first compound 0.316 µM
[20] = second compound 3.16 µM, first compound 1 µM
[21] = second compound 10 µM, first compound 0.0316 µM
[22] = second compound 10 µM, first compound 0.1 µM
[23] = second compound 10 µM, first compound 0.316 µM
[24] = second compound 10 µM, first compound 1 µM
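Further: spheroids exposed to agents for 7 days before reading.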
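Wherever viability, T/C is given: luminescence signal used as a stand-in for viable cells.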

## CC(Nc1ccc2c(c1)OCCn1cc(N3C(=O)OCC3C(F)F)nc1-2)C(N)=O (centres undefined) + CNC(=O)c1ccc(Nc2nc(OC3CCCC3)c3c(-c4ccc5nc(C)oc5c4)c[nH]c3n2)c(OC)c1
Second compound 0.0316 µM
  IC50: 905 nM
Second compound 0.1 µM
  IC50: 221 nM
Second compound 0.316 µM
  IC50: < 31.6 nM
Second compound 1 µM
  IC50: < 31.6 nM
Second compound 3.16 µM
  IC50: < 31.6 nM
Second compound 10 µM
  IC50: < 31.6 nM
[1]
  viability, T/C: 84.8%
[2]
  viability, T/C: 90.6%
[3]
  viability, T/C: 71.2%
[4]
  viability, T/C: 49.1%
Second compound 0.0316 µM, first compound 3.16 µM
  viability, T/C: 41.6%
Second compound 0.0316 µM, first compound 10 µM
  viability, T/C: 41.2%
[5]
  viability, T/C: 59%
[6]
  viability, T/C: 61.5%
[7]
  viability, T/C: 41.7%
[8]
  viability, T/C: 42.8%
Second compound 0.1 µM, first compound 3.16 µM
  viability, T/C: 33.4%
Second compound 0.1 µM, first compound 10 µM
  viability, T/C: 29%
[9]
  viability, T/C: 21.1%
[10]
  viability, T/C: 20.5%
[11]
  viability, T/C: 18.4%
[12]
  viability, T/C: 15%
Second compound 0.316 µM, first compound 3.16 µM
  viability, T/C: 13.5%
Second compound 0.316 µM, first compound 10 µM
  viability, T/C: 14%
[13]
  viability, T/C: 18.1%
[14]
  viability, T/C: 14.4%
[15]
  viability, T/C: 14.4%
[16]
  viability, T/C: 14.8%
Second compound 1 µM, first compound 3.16 µM
  viability, T/C: 12.8%
Second compound 1 µM, first compound 10 µM
  viability, T/C: 12.6%
[17]
  viability, T/C: 17.7%
[18]
  viability, T/C: 18.5%
[19]
  viability, T/C: 18%
[20]
  viability, T/C: 14.2%
Second compound 3.16 µM, first compound 3.16 µM
  viability, T/C: 13.1%
Second compound 3.16 µM, first compound 10 µM
  viability, T/C: 11.8%
[21]
  viability, T/C: 16.1%
[22]
  viability, T/C: 17.5%
[23]
  viability, T/C: 14.1%
[24]
  viability, T/C: 15.6%
Second compound 10 µM, first compound 3.16 µM
  viability, T/C: 13.4%
Second compound 10 µM, first compound 10 µM
  viability, T/C: 11.6%

## CCN1CCN(Cc2ccc(Nc3ncc(F)c(-c4cc(F)c5nc(C)n(C(C)C)c5c4)n3)nc2)CC1 + CNC(=O)c1ccc(Nc2nc(OC3CCCC3)c3c(-c4ccc5nc(C)oc5c4)c[nH]c3n2)c(OC)c1
Second compound 0.0316 µM
  IC50: 299 nM
Second compound 0.1 µM
  IC50: 17.4 nM
Second compound 0.316 µM
  IC50: < 3.16 nM
Second compound 1 µM
  IC50: < 3.16 nM
Second compound 3.16 µM
  IC50: < 3.16 nM
Second compound 10 µM
  IC50: < 3.16 nM
Second compound 0.0316 µM, first compound 0.00316 µM
  viability, T/C: 105%
Second compound 0.0316 µM, first compound 0.01 µM
  viability, T/C: 84.2%
[1]
  viability, T/C: 80%
[2]
  viability, T/C: 66.7%
[3]
  viability, T/C: 44.6%
[4]
  viability, T/C: 37.4%
Second compound 0.1 µM, first compound 0.00316 µM
  viability, T/C: 58.9%
Second compound 0.1 µM, first compound 0.01 µM
  viability, T/C: 53.9%
[5]
  viability, T/C: 45.8%
[6]
  viability, T/C: 41.1%
[7]
  viability, T/C: 34.4%
[8]
  viability, T/C: 29.3%
Second compound 0.316 µM, first compound 0.00316 µM
  viability, T/C: 19.5%
Second compound 0.316 µM, first compound 0.01 µM
  viability, T/C: 18.5%
[9]
  viability, T/C: 21.5%
[10]
  viability, T/C: 19.9%
[11]
  viability, T/C: 24.6%
[12]
  viability, T/C: 22.4%
Second compound 1 µM, first compound 0.00316 µM
  viability, T/C: 18.6%
Second compound 1 µM, first compound 0.01 µM
  viability, T/C: 23.3%
[13]
  viability, T/C: 20.4%
[14]
  viability, T/C: 20.8%
[15]
  viability, T/C: 20.1%
[16]
  viability, T/C: 23.3%
Second compound 3.16 µM, first compound 0.00316 µM
  viability, T/C: 20.1%
Second compound 3.16 µM, first compound 0.01 µM
  viability, T/C: 22.1%
[17]
  viability, T/C: 19.7%
[18]
  viability, T/C: 18.9%
[19]
  viability, T/C: 18.9%
[20]
  viability, T/C: 18.7%
Second compound 10 µM, first compound 0.00316 µM
  viability, T/C: 20.3%
Second compound 10 µM, first compound 0.01 µM
  viability, T/C: 18%
[21]
  viability, T/C: 16.9%
[22]
  viability, T/C: 17.8%
[23]
  viability, T/C: 22%
[24]
  viability, T/C: 25.9%

Reference: PubChem BioAssay AID2060616 (Molecular Pharmacology Branch, DTP, NCI, 2025)
